Data published in PMC8618058, “A Phenylfurocoumarin Derivative Reverses ABCG2-Mediated Multidrug Resistance In Vitro and In Vivo” (International Journal of Molecular Sciences, 2021).

Molecular target: T1, ABCG2 (Homo sapiens, UniProt Q9UNQ0)
T1 construct: total membranes of ABCG2-expressing High Five insect cells
T1 sequence (Q9UNQ0 1-655): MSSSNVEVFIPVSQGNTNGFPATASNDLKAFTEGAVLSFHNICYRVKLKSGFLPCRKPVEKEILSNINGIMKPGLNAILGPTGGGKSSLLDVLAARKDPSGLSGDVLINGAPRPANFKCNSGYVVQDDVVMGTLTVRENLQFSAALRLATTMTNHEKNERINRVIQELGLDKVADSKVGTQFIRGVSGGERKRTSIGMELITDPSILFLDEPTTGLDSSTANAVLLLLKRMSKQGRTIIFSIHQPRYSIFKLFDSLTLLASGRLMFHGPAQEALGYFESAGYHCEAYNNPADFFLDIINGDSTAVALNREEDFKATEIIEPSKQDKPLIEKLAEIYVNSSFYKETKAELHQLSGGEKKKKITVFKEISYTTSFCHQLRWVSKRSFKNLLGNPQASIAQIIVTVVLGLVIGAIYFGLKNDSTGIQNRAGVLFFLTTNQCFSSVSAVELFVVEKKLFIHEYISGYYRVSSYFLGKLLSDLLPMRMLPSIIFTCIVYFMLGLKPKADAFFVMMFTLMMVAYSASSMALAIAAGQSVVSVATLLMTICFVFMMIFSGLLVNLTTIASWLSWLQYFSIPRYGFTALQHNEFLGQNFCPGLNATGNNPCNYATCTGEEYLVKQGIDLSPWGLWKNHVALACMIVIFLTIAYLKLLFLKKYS
Test: stimulation of vanadate-sensitive ATPase activity in ABCG2-expressing insect cell membranes; also PhA efflux inhibition in HCT-116/BCRP cells
Assay type: biochemical

Q: Which EC50 does the source give for COc1ccc(-c2c3occc3c(OC[C@H]3OC3(C)C)c3ccc(=O)oc23)cc1OC [PFC, (R)-9-(3,4-dimethoxyphenyl)-4-((3,3-dimethyloxiran-2-yl)methoxy)-7H-furo [3,2-g]chromen-7-one] here?
A: 3.8 ± 0.64 nM
